How the values were obtained:
KEAP1 C151 = target: T1, KEAP1 C151 (Homo sapiens, UniProt Q14145); assay: Nrf2 TMT measurement: in vitro TE50 for KEAP1 C151 (IA-DTB competition, targeted TMT mass spectrometry) in MDA-MB-468 cell lysate; assay type: binding; conditions: in vitro target engagement of KEAP1 C151, targeted TMT, read-out: KEAP1_C151 TE50
T1 construct: treating 500 μg of cell lysate generated from MDA-MB-468 breast cancer cells with DMSO or compound; endogenous in cells; host or cells: MDA-MB-468 breast cancer cell lysate
Summary of the method: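 Occupancy of KEAP1 C151 measured as loss of IA-DTB labeling (200 μM, 1 h, room temperature) after 1 h compound pre-treatment of MDA-MB-468 cell lysate.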

Nrf2 = Nrf2 antagonism assay: ARE luciferase reporter in KYSE-70 cells; assay type: cell-based; conditions: positive Imax corresponds to Nrf2 antagonism; for Emax: Homo sapiens, KYSE-70, KYSE-70 cells, read-out: KYSE70 Cellular ARE Luciferase Imax (%); for KYSE70 Cellular ARE Luciferase Imax (%): KYSE-70 cells
Summary of the method: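 Dose-response curves give IC50 and Imax, with positive Imax read as Nrf2 antagonism, i.e. reduced luciferase signal. Reporter cells are Nrf2-high KYSE-70 (Nrf2 W24C mutant) bearing ARE-controlled luciferase. Antagonists are proposed to act at KEAP1 C151, speeding Nrf2 degradation.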

T1 sequence (Q14145 whole entry): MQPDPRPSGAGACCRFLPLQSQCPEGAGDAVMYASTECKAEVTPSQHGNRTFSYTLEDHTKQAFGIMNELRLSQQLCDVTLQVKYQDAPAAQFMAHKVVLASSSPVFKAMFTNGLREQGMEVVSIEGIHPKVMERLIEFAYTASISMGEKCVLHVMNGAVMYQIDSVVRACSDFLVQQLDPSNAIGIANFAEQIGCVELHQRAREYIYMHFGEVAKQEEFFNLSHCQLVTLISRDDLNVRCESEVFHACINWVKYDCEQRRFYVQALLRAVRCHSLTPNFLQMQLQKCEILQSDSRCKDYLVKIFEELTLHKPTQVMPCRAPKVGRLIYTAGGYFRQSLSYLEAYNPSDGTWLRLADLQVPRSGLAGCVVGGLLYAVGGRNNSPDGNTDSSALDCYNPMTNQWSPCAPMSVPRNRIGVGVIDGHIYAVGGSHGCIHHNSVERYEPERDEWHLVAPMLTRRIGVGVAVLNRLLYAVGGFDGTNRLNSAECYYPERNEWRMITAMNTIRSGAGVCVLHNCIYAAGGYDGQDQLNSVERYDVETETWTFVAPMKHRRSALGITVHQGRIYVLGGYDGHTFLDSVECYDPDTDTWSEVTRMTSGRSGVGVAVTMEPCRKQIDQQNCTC

`C=CC(=O)N1CC2(CC2)OCC1c1cc(Cl)cc(-c2ccc(F)c(C(N)=O)c2)c1` (single isomer, unassigned) [Compound 76, 3′-(7-acryloyl-4-oxa-7-azaspiro[2.5]octan-6-yl)-5′-chloro-4-fluoro-[1,1′-biphenyl]-3-carboxamide] was tested, and the IC50 (KEAP1 C151) was 24 nM and the Emax (Nrf2) was 90%.
`C=CC(=O)N1CCOC[C@H]1c1cc(Cl)cc(-c2ncc(N)c(OC)n2)c1` (single isomer, unassigned) [Compound 254] was tested, and the IC50 (KEAP1 C151) was 86 nM and the Emax (Nrf2) was 92%.
For `C=CC(=O)N1CCOC[C@H]1c1cc(Cl)cc(C2CNC(=S)CO2)c1` (single isomer, unassigned) [Compound 240], the IC50 (KEAP1 C151) was 150 nM and the “KYSE70 Cellular ARE Luciferase Imax (%)” value (Nrf2) was 61%.
`C=CC(=O)N1[C@H](C)COC[C@H]1c1cc(Cl)nc(-c2ccn3ccnc3c2)c1` (single isomer, unassigned) [Compound 138] gave an IC50 (KEAP1 C151) of 41 nM and an Emax (Nrf2) of 75%.
`C=CC(=O)N1CCOCC1c1cc(Cl)nc(-c2ccc(F)c(C(N)=O)c2)c1` (single isomer, unassigned) [Compound 65, 5-(4-(4-acryloylmorpholin-3-yl)-6-chloropyridin-2-y1)-2-fluorobenzamide] gave an IC50 (KEAP1 C151) of 24 nM and an Emax (Nrf2) of 88%.
Compound `C=CC(=O)N1CCOC[C@H]1c1cc(Cl)cc(-c2nc(C(N)=O)co2)c1` (single isomer, unassigned) [Compound 224] has an IC50 (KEAP1 C151) of 170 nM and an Emax (Nrf2) of 90%.
For `C=CC(=O)N1[C@H](C)COC[C@H]1c1cc(Cl)cc(-c2ncnc3[nH]cnc23)c1` (single isomer, unassigned) [Compound 137], the IC50 (KEAP1 C151) was 25 nM and the Emax (Nrf2) was 92%.
With `C=CC(=O)N1CCOCC1c1cc(Cl)cc(-c2cccc(C(N)=O)c2)c1` (single isomer, unassigned) [Compound 71, 3′-(4-acryloylmorpholin-3-yl)-5′-chloro-[1,1′-biphenyl]-3-carboxamide] the IC50 (KEAP1 C151) was 30 nM and the Emax (Nrf2) was 78%.
`C=CC(=O)N1CCOC[C@H]1c1cc(Cl)cc(-c2ccnc(C#N)n2)c1` (single isomer, unassigned) [Compound 106] gave an IC50 (KEAP1 C151) of 37 nM and an Emax (Nrf2) of 67%.
For `C=CC(=O)N1CCOCC1c1cc(Cl)cc(-c2cnc3cccnc3c2)c1` (single isomer, unassigned) [Compound 37, 1-(3-(3-chloro-5-(1,5-naphthyridin-3-yl)phenyl)morpholino)prop-2-en-1-one], the IC50 (KEAP1 C151) was 22 nM and the Emax (Nrf2) was 85%.
Work on `C=CC(=O)N1CCC(F)(F)CC1c1cc(Cl)cc(-c2ncc(N)cn2)c1` (single isomer, unassigned) [Compound 247, 1-(2-(3-(5-aminopyrimidin-2-yl)-5-chlorophenyl)-4,4-difluoropiperidin-1-yl)prop-2-en-1-one] yielded an IC50 (KEAP1 C151) of 16 nM and an Emax (Nrf2) of 91%.
Work on `C=CC(=O)N1CCOC[C@H]1c1cc(Cl)cc(-c2cccc(C)n2)c1` (single isomer, unassigned) [Compound 98] yielded an IC50 (KEAP1 C151) of 26 nM and an Emax (Nrf2) of 76%.
With `C=CC(=O)N1CCOCC1c1cc(Cl)cc(-c2cccn(C)c2=O)c1` (single isomer, unassigned) [Compound 36, 3-(3-(4-acryloylmorpholin-3-yl)-5-chlorophenyl)-1-methylpyridin-2(1H)-one] the IC50 (KEAP1 C151) was 110 nM and the Emax (Nrf2) was 69%.
`C=CC(=O)N1[C@H](c2cc(Cl)cc(-c3ccnc(N)n3)c2)COC[C@H]1C(F)F` (single isomer, unassigned) [Compound 290] gave an IC50 (KEAP1 C151) of 15 nM and an Emax (Nrf2) of 93%.
`C=CC(=O)N1CC2(CC2)OCC1c1cc(Cl)cc(-c2ccnc(N)n2)c1` (single isomer, unassigned) [Compound 84, 1-(6-(3-(2-aminopyrimidin-4-y1)-5-chlorophenyl)-4-oxa-7-azaspiro[2.5]octan-7-yl)prop-2-en-1-one] gave an IC50 (KEAP1 C151) of 47 nM and an Emax (Nrf2) of 93%.
`C=CC(=O)N1CC2(CC2)OCC12COc1c(-c3ccnc(N)n3)cc(Cl)cc12` (single isomer, unassigned) [Compound 192] was tested, and the IC50 (KEAP1 C151) was 6710 nM and the Emax (Nrf2) was 64%.
`C=CC(=O)N1CCOC[C@H]1c1cc(Cl)cc(C2CNC(=S)N(C)C2)c1` (single isomer, unassigned) [Compound 227] was tested, and the IC50 (KEAP1 C151) was 95 nM and the “KYSE70 Cellular ARE Luciferase Imax (%)” value (Nrf2) was 90%.
Work on `C=CC(=O)N1CCOC[C@H]1c1cc(Cl)cc(-c2cc(N)on2)c1` (single isomer, unassigned) [Compound 212] yielded an IC50 (KEAP1 C151) of 69 nM and an Emax (Nrf2) of 90%.
For `C=CC(=O)N1C[C@@H](C)OC[C@H]1c1cc(Cl)cc(-c2ccc(F)c(C(N)=O)c2)c1` (single isomer, unassigned) [Compound 179], the IC50 (KEAP1 C151) was 190 nM and the Emax (Nrf2) was 92%.
`C=CC(=O)N1CCN(C(C)=O)C[C@H]1c1cc(Cl)cc(-c2ccnc(N)n2)c1` (single isomer, unassigned) [Compound 81] gave an IC50 (KEAP1 C151) of 12 nM and an Emax (Nrf2) of 85%.

Reference: US20260207621A1 (Vividion Therapeutics, Inc., priority 2022, published 2026)
